# In patent publication US8420630B2 (Boehringer Ingelheim Pharma GmbH & Co. KG, priority 2001, dated 2013):
# Molecular target: T1, CDK1/cyclinB1 (Homo sapiens, UniProt P06493)
# T1 construct: made in house; host or cells: High Five insect cells (Trichoplusia ni), baculovirus coinfection
# Test: Cyclin B1-CDK1 kinase inhibition test
# Type: biochemical
# Conditions: CDK1 tests (Example 13); recombinant cyclin B1/CDK1, substrate histone H1; read-out: CDK1/cyclinB1 IC50 value
# Description: CDK4) were cloned by standard methods using RT-PCR, and cloned into a transfer vector (cyclin in pAcG2T made by Pharmingen, CDKs in p2Bac made by Invitrogen) for the baculovirus system. […] After thawing the cells were resuspended in lysing buffer (50 mM HEPES pH 7.5, 10 mM MgCl2, 1 mM DTT, 5 μg/ml leupeptin, 5 μg/ml aprotinin, 100 μM NaF, 100 μM PMSF, 10 mM β-glycerolphosphate, 100 μM Na3VO4, 30 mM nitrophenylphosphate, 17.5 ml of lysing buffer per 10^8 cells) and incubated on ice for 30 min. […] Cyclin D1-CDK4 was purified by means of a GST-tag on cyclin D1 and then using glutathione beads (total protein about 0.2 mg/ml). All the kinase tests were carried out in 96-well microtitre plates (Greiner PS) in a final volume of 60 μl. […] As a negative control the kinase reaction was carried out in the absence of the substrate histone H1. As a positive control the kinase reaction was carried out in the absence of a test substance. As an internal control 30 μM and 300 μM (final concentration) of the kinase inhibitor olomoucin (Alexis) were used. […] The kinase reaction is started by the addition of 10 μl of ATP mix (0.045 mM ATP, 0.5 μCi ^33P-ATP in kinase buffer) and incubated for 30 min at 30° C. and 600 rpm in a shaking incubator. After incubation the plates were placed on ice and the proteins were precipitated by the addition of 125 μl of ice-cold 5% trichloroacetic acid. After 15 min on ice the precipitates were transferred onto Packard Unifilter 96 GF/B plates with the Packard Harvester System, and collected by vacuum filtration. The precipitates were washed 4 times with dist. H2O at ambient temperature. The filter plates were then dried at 60° C. and 50 μl of scintillation liquid were added to each well (Ultima Gold, Packard). The plate was sealed up with Sealing Tape and after 1 h measured in a scintillation measuring apparatus (Micro Beta made by Wallac).
# T1 sequence (P06493 whole entry): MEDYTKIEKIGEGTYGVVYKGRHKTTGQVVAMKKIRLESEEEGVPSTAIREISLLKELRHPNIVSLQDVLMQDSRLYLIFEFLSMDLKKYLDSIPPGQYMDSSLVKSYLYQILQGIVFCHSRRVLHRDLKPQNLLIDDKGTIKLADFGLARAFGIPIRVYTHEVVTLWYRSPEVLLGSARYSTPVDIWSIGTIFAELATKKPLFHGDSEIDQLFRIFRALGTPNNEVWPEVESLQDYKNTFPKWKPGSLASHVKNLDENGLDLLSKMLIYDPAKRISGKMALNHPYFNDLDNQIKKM
# T1 sequence (P14635 whole entry partner): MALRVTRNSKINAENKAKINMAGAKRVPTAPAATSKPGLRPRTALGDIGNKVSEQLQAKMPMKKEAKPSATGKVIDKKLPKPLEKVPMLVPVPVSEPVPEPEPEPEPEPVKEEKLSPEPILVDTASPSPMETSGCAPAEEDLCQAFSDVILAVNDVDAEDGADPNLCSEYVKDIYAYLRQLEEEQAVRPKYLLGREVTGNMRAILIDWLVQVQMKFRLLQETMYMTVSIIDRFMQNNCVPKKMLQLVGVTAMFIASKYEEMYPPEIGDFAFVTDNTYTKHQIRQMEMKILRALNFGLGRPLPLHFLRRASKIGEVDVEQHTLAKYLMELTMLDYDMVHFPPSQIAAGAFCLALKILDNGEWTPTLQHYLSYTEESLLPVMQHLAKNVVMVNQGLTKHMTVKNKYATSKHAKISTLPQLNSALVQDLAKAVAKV
row,Compound,IC50
1,"NCCCCCNc1nc(Nc2cccc(Cl)c2)ncc1C(F)(F)F [Example 1(077), 2-(3-chloro-phenylamino)-4-(5-amino-1-pentylamino)-5-trifluoromethyl-pyrimidine]",< 100 nM
2,"NCCCCCNc1nc(Nc2ccc(Cl)cc2)ncc1C(F)(F)F [Example 1(079), 2-(4-chloro-phenylamino)-4-(5-amino-pentyl-1-amino)-5-trifluoromethyl-pyrimidine]",< 100 nM
3,"NCCNc1nc(Nc2ccc(Cl)c(Cl)c2)ncc1C(F)(F)F [Example 1(080), 2-(3,4-dichloro-phenylamino)-4-(2-amino-1-ethylamino)-5-trifluoromethyl-pyrimidine]",< 100 nM
4,"NCC1CCC(CNc2nc(Nc3cccc(Br)c3)ncc2C(F)(F)F)CC1 (stereo not shown) [Example 1(088), 2-(3-bromo-phenylamino)-4-(4-aminomethyl-cyclohexylmethylamino)-5-trifluoromethyl-pyrimidine]",< 100 nM
5,"COCCNc1nc(Nc2ccc(Cl)c(Cl)c2)ncc1C(F)(F)F [Example 1(093), 2-(3,4-dichloro-phenylamino)-4-(2-methoxy-1-ethylamino)-5-trifluoromethyl-pyrimidine]",< 100 nM
6,"FC(F)(F)c1cnc(Nc2ccc(Cl)c(Cl)c2)nc1NCCN1CCOCC1 [Example 1(104), 2-(3,4-dichloro-phenylamino)-4-(2-morpholino-1-ethylamino)-5-trifluoromethyl-pyrimidine]",< 100 nM
7,"NCC1CCC(CNc2nc(Nc3ccc(Cl)cc3)ncc2C(F)(F)F)CC1 (stereo not shown) [Example 1(107), 2-(4-chloro-phenylamino)-4-(4-aminomethyl-cyclohexylmethylamino)-5-trifluoromethyl-pyrimidine]",< 100 nM
8,"NC1CCC(Nc2nc(Nc3ccc(Cl)c(Cl)c3)ncc2C(F)(F)F)CC1 (stereo not shown) [Example 1(109), 2-(3,4-dichlorophenylamino)-4-(4-amino-cyclohexylamino)-5-trifluoromethyl-pyrimidine]",< 100 nM
9,"NC1CCC(Nc2nc(Nc3ccc(C(=O)O)cc3)ncc2C(F)(F)F)CC1 (stereo not shown) [Example 1(111), 2-(4-carboxyphenylamino)-4-(4-amino-cyclohexylamino)-5-trifluoromethyl-pyrimidine]",< 100 nM
10,"O=C(O)CCc1ccc(Nc2ncc([N+](=O)[O-])c(N3CCc4[nH]cnc4C3)n2)cc1 [Example 1(112), 2-(4-(2-carboxy-1-ethyl)-phenylamino)-4-(1,4,6,7-tetrahydro-imidazo[4,5-c]pyridin-5-yl)-5-nitro-pyrimidine]",< 100 nM
11,"Nc1c(Cl)cc(Nc2ncc([N+](=O)[O-])c(N3CCc4[nH]cnc4C3)n2)cc1Cl [Example 1(113), 2-(4-amino-3,5-dichlorophenylamino)-4-(1,4,6,7-tetrahydro-imidazo[4,5-c]pyridin-5-yl)-5-nitro-pyrimidine]",< 100 nM
12,"Cc1cc(Nc2ncc([N+](=O)[O-])c(NCC3CCC(CN)CC3)n2)ccc1Cl (stereo not shown) [Example 1(115), 2-(4-chloro-3-methyl-phenylamino)-4-(4-aminomethyl-cyclohexylmethylamino)-5-nitro-pyrimidine]",< 100 nM
13,"O=[N+]([O-])c1cnc(Nc2ccc(Br)cc2)nc1N1CCc2[nH]cnc2C1 [Example 1(116), 2-(4-bromophenylamino)-4-(1,4,6,7-tetrahydro-imidazo[4,5-c]pyridin-5-yl)-5-nitro-pyrimidine]",< 100 nM
14,"CN1CCC2(CCN(c3nc(Nc4ccc(Cl)c(Cl)c4)ncc3C(F)(F)F)C2)C1 (stereo not shown) [Example 1(117), 2-(3,4-dichlorophenylamino)-4-(7-methyl-2,7-diaza-spiro[4.4]non-2-yl)-5-trifluoromethyl-pyrimidine]",< 100 nM
15,"FC(F)(F)c1cnc(Nc2ccccc2)nc1N1CCc2[nH]cnc2C1 [Example 1(118), 2-phenylamino-4-(1,4,6,7-tetrahydro-imidazo[4,5-c]pyridin-5-yl)-5-trifluoromethyl-pyrimidine]",< 100 nM
16,"O=[N+]([O-])c1cnc(Nc2cccc(Br)c2)nc1N1CCc2[nH]cnc2C1 [Example 1(119), 2-(3-bromophenylamino)-4-(1,4,6,7-tetrahydro-imidazo[4,5-c]pyridin-5-yl)-5-nitro-pyrimidine]",< 100 nM
17,"CN(C)C1CCC(Nc2nc(Nc3ccc(Cl)c(Cl)c3)ncc2C(F)(F)F)CC1 (stereo not shown) [Example 1(120), 2-(3,4-dichlorophenylamino)-4-(4-dimethylamino-cyclohexylamino)-5-trifluoromethyl-pyrimidine]",< 100 nM

row,Compound,IC50
1,"FC(F)(F)c1cnc(Nc2ccc3ccccc3c2)nc1N1CCc2[nH]cnc2C1 [Example 1(152), 2-(2-naphthylamino)-4-(1,4,6,7-tetrahydro-imidazo[4,5-c]pyridin-5-yl)-5-trifluoromethyl-pyrimidine]",< 100 nM
2,"NCCCCNc1nc(Nc2ccc(Cl)c(Cl)c2)ncc1C(F)(F)F [Example 1(304), 2-(3,4-dichlorophenylamino)-4-(4-aminobutylamino)-5-trifluoromethyl-pyrimidine]",< 100 nM
3,"NCCc1ccccc1CCNc1nc(Nc2ccc(Cl)c(Cl)c2)ncc1C(F)(F)F [Example 1(349), 2-(3,4-dichlorophenylamino)-4-(2-(2-(2-amino-1-ethyl)-phenyl)-1-ethyl-amino)-5-trifluoromethyl-pyrimidine]",< 100 nM
4,"CC(CC(=O)O)Nc1nc(Nc2ccc(Cl)c(Cl)c2)ncc1C(F)(F)F (stereo not shown) [Example 1(388), 2-(3,4-dichlorophenylamino)-4-(1-carboxy-2-propylamino)-5-trifluoromethyl-pyrimidine]",< 100 nM
5,"CC(=O)NCC(C)(C)Nc1nc(Nc2ccc(S(=O)(=O)N3CCOCC3)cc2)ncc1C(F)(F)F [Example 1(585), N-(2-Methyl-2-{2-[4-(morpholin-4-sulphonyl)-phenylamino]-5-trifluoromethyl-pyrimidin-4-ylamino}-propyl)-acetamide]",< 100 nM
6,"O=[N+]([O-])c1cnc(NCc2ccccc2Br)nc1N1CC[S+]([O-])CC1 [Example 1(628), 2-(2-bromo-benzylamino)-4-(S-oxido-thiomorpholino)-5-nitro-pyrimidine]",< 100 nM
7,"CC(=O)NCCNc1nc(Nc2cccc(S(=O)(=O)N(C)C)c2)ncc1C(F)(F)F [Example 1(651), N-{2-[2-(3-dimethylsulphamoyl-phenylamino)-5-trifluoromethyl-pyrimidin-4-ylamino]-ethyl}-acetamide]",< 100 nM
8,"CC(=O)NCCNc1nc(Nc2ccc(S(=O)(=O)N(C)C)cc2)ncc1Br [Example 1(652), N-{2-[5-Bromo-2-(4-dimethylsulphamoyl-phenylamino)-pyrimidin-4-ylamino]-ethyl}-acetamide]",< 100 nM
9,"CC(=O)NCCNc1nc(Nc2ccc3cnn(C)c3c2)ncc1C(F)(F)F [Example 1(654), N-{2-[2-(1-methyl-1H-indazol-6-ylamino)-5-trifluoromethyl-pyrimidin-4-ylamino]-ethyl}-acetamide]",< 100 nM
10,"CC(=O)NCCNc1nc(Nc2ccc3c(cnn3C)c2)ncc1C(F)(F)F [Example 1(655), N-{2-[2-(1-methyl-1H-indazol-5-ylamino)-5-trifluoromethyl-pyrimidin-4-ylamino]-ethyl}-acetamide]",< 100 nM
11,"CC(=O)NCCNc1nc(Nc2ccc3cn(C)nc3c2)ncc1C(F)(F)F [Example 1(656), N-{2-[2-(2-methyl-2H-indazol-6-ylamino)-5-trifluoromethyl-pyrimidin-4-ylamino]-ethyl}-acetamide]",< 100 nM
12,"O=C1CCCN1CCCNc1nc(Nc2ccc(Cl)c(Cl)c2)ncc1Br [Example 1(661), 1-{3-[5-Bromo-2-(3,4-dichloro-phenylamino)-pyrimidin-4-ylamino]-propyl}-pyrrolidin-2-one]",< 100 nM
13,NC(=O)c1ccc(Nc2ncc(Br)c(NCCCN3CCCC3=O)n2)cc1 [Example 1(662)],< 100 nM
14,"CC(=O)NCCNc1nc(Nc2ccc(C(N)=O)cc2)ncc1Br [Example 1(663), 4-[4-(2-acetylamino-ethylamino)-5-bromo-pyrimidin-2-ylamino]-benzamide]",< 100 nM
15,"CN(C)S(=O)(=O)c1ccc(Nc2ncc(C(F)(F)F)c(NCCN3CCCC3=O)n2)cc1 [Example 1(683), N,N-dimethyl-4-{4-[2-(2-oxo-pyrrolidin-1-yl)-ethylamino]-5-trifluoromethyl-pyrimidin-2-ylamino}-phenylsulphonamide]",< 100 nM
16,"CC(=O)NC(C)(C)CNc1nc(Nc2ccc(S(=O)(=O)N3CCOCC3)cc2)ncc1C(F)(F)F [Example 1(685), N-(1,1-dimethyl-2-{2-[4-(morpholine-4-sulphonyl)-phenylamino]-5-trifluoromethyl-pyrimidin-4-ylamino}-ethyl)-acetamide]",< 100 nM
17,"NCCNc1nc(Nc2ccc(S(=O)(=O)N3CCOCC3)cc2)ncc1C(F)(F)F [Example 1(689), N4-(2-amino-ethyl)-N2-[4-(morpholine-4-sulphonyl)-phenyl]-5-trifluoromethyl-pyrimidine-2,4-diamine]",< 100 nM
